Test results taken from ChEMBL document CHEMBL1155704, “Acetylated analogues of the microtubule-stabilizing agent discodermolide: preparation and biological activity” (J Nat Prod, 2001).

System: P388
Assay: Cytotoxicity against mouse P388 cells after 48 hrs by MTT assay
Assay type: functional, cell-based
Conditions: P388, 48 h

Row | SMILES | IC50
1 | C=C/C=C\[C@H](C)[C@H](OC(N)=O)[C@@H](C)[C@H](O)[C@@H](C)C/C(C)=C\[C@H](C)[C@@H](OC(C)=O)[C@@H](C)/C=C\[C@H](C[C@@H]1OC(=O)[C@H](C)[C@@H](OC(C)=O)[C@H]1C)OC(C)=O | 166 nM
2 | C=C/C=C\[C@H](C)[C@H](OC(N)=O)[C@@H](C)[C@H](OC(C)=O)[C@@H](C)C/C(C)=C\[C@H](C)[C@@H](O)[C@@H](C)/C=C\[C@H](C[C@@H]1OC(=O)[C@H](C)[C@@H](OC(C)=O)[C@H]1C)OC(C)=O | > 6920 nM
3 | C=C/C=C\[C@H](C)[C@H](OC(N)=O)[C@@H](C)[C@H](O)[C@@H](C)C/C(C)=C\[C@H](C)[C@@H](O)[C@@H](C)/C=C\[C@H](C[C@@H]1OC(=O)[C@H](C)[C@@H](O)[C@H]1C)OC(C)=O | 3.9 nM
4 | C=C/C=C\[C@H](C)[C@H](OC(N)=O)[C@@H](C)[C@H](O)[C@@H](C)C/C(C)=C\[C@H](C)[C@@H](O)[C@@H](C)/C=C\[C@H](C[C@@H]1OC(=O)[C@H](C)[C@@H](OC(C)=O)[C@H]1C)OC(C)=O | 0.74 nM
5 | C=C/C=C\[C@H](C)[C@H](OC(N)=O)[C@@H](C)[C@H](OC(C)=O)[C@@H](C)C/C(C)=C\[C@H](C)[C@@H](OC(C)=O)[C@@H](C)/C=C\[C@H](C[C@@H]1OC(=O)[C@H](C)[C@@H](OC(C)=O)[C@H]1C)OC(C)=O | 837 nM
6 | C=C/C=C\[C@H](C)[C@H](OC(N)=O)[C@@H](C)[C@H](OC(C)=O)[C@@H](C)C/C(C)=C\[C@H](C)[C@@H](O)[C@@H](C)/C=C\[C@@H](O)C[C@@H]1OC(=O)[C@H](C)[C@@H](OC(C)=O)[C@H]1C | 1150 nM
7 | C=C/C=C\[C@H](C)[C@H](OC(N)=O)[C@@H](C)[C@H](O)[C@@H](C)C/C(C)=C\[C@H](C)[C@@H](OC(C)=O)[C@@H](C)/C=C\[C@@H](O)C[C@@H]1OC(=O)[C@H](C)[C@@H](OC(C)=O)[C@H]1C | 103 nM
8 | C=C/C=C\[C@H](C)[C@H](OC(N)=O)[C@@H](C)[C@H](O)[C@@H](C)C/C(C)=C\[C@H](C)[C@@H](O)[C@@H](C)/C=C\[C@@H](O)C[C@@H]1OC(=O)[C@H](C)[C@@H](OC(C)=O)[C@H]1C | 12.6 nM
